Legend:
[1] = Inhibition of recombinant human N-terminal His-tagged EGFR (676 to 1255 residues) expressed in Sf21 insect cells at 200 uM using kinase substrate 22 incubated for 30 mins in presence of ATP relative to control
[2] = Inhibition of recombinant human N-terminal His-tagged EGFR (676 to 1255 residues) expressed in Sf21 insect cells using kinase substrate 22 incubated for 30 mins in presence of ATP
PC-9 = assay: Antiproliferative activity against human PC-9 cells expressing EGFR E746/A750 deletion mutant assessed as reduction in cell viability after 72 hrs by CCK-8 assay; assay type: functional
Calu-3 = assay: Antiproliferative activity against human Calu-3 cells assessed as reduction in cell viability after 72 hrs by CCK-8 assay; assay type: functional
NCI-H358 = assay: Antiproliferative activity against human NCI-H358 cells assessed as reduction in cell viability after 72 hrs by CCK-8 assay; assay type: functional
[3] = Antiproliferative activity against human NCI-H1781 cells expressing HER G776V mutant assessed as reduction in cell viability after 72 hrs by CCK-8 assay; assay type: functional
[4] = target: Epidermal growth factor receptor (Homo sapiens, UniProt P00533); assay: Inhibition of recombinant human N-terminal GST-tagged EGFR (669 to 1210 residues) expressed in Sf21 insect cells using kinase substrate 22 incubated for 30 mins in presence of ATP
Chain of Epidermal growth factor receptor (P00533 whole entry, the tested form may be a part): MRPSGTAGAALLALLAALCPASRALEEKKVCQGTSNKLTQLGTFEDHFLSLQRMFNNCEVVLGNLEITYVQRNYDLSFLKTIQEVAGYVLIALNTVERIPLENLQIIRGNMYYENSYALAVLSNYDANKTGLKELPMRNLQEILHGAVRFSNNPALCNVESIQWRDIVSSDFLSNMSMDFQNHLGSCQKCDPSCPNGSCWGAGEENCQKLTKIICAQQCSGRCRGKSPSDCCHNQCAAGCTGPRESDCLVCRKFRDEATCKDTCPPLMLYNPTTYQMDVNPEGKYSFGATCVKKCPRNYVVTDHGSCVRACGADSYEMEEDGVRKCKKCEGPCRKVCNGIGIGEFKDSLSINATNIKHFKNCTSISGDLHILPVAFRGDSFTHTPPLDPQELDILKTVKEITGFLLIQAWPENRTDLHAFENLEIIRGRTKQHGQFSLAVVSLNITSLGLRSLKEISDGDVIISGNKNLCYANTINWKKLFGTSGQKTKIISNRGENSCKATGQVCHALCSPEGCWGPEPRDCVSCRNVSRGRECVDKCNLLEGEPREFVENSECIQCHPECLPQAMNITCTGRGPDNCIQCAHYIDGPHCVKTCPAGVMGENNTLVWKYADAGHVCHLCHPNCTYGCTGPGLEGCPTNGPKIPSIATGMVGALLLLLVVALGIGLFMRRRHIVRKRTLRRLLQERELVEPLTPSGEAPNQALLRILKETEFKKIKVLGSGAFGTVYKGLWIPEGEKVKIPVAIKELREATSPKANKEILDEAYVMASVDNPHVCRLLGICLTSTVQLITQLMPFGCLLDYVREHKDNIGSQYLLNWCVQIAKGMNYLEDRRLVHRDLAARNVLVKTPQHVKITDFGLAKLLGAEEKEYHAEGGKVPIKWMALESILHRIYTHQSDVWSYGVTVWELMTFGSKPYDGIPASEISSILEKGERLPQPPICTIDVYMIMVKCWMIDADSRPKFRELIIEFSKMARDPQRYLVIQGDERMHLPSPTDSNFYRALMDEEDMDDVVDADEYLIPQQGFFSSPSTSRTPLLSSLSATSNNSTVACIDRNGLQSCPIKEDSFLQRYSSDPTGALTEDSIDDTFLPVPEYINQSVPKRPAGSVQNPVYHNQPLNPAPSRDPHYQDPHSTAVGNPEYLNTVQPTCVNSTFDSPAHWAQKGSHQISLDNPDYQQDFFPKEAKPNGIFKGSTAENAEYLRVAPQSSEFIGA

Structure (SMILES)	inhibition [1] [%]	IC50 [2] [µM]	GI50 (PC-9) [µM]	GI50 (Calu-3) [µM]	GI50 (NCI-H358) [µM]	GI50 [3] [µM]	IC50 [4] [µM]
C=C(F)C(=O)N1CCN(C(=O)Oc2cc3c(Nc4cnc5ccccc5c4)ncnc3cc2OC)[C@H](C)C1	11.5						
C=CC(=O)N1CCN(C(=O)Oc2cc3c(Nc4cnc5ccccc5c4)ncnc3cc2OC)[C@H](C)C1	14.9						
C=CC(=O)N1CCN(C(=O)Oc2cc3c(Nc4ccc5ncccc5c4)ncnc3cc2OC)[C@H](C)C1	2.6						
C=C(F)C(=O)N1CCN(C(=O)Oc2cc3c(Nc4ccc(Cl)c(Cl)c4F)ncnc3cc2OC)[C@H](C)C1	41.1						
C=CC(=O)N1CCN(C(=O)Oc2cc3c(Nc4ccc(Cl)c(Cl)c4F)ncnc3cc2OC)[C@H](C)C1	48.9						
C=CC(=O)N1CCN(C(=O)Oc2cc3c(Nc4ccc5scnc5c4)ncnc3cc2OC)[C@H](C)C1	5.8						
C=CC(=O)N1CCN(C(=O)Oc2cc3c(Nc4ccc(C#N)c(F)c4)ncnc3cc2OC)[C@H](C)C1	2.3						
C=CC(=O)N1CCN(C(=O)Oc2cc3c(Nc4cc(C(C)(C)C)no4)ncnc3cc2OC)[C@H](C)C1	14.6						
C=CC(=O)N1CCN(C(=O)Oc2cc3c(Nc4ccc(F)c(C#N)c4)ncnc3cc2OC)[C@H](C)C1	13.9						
C=C(C)C(=O)N1CCN(C(=O)Oc2cc3c(Nc4ccc(Cl)c(Cl)c4F)ncnc3cc2OC)[C@H](C)C1	43.6						
C=CC(=O)N1CCN(C(=O)Oc2cc3c(Nc4cccc(Cl)c4F)ncnc3cc2OC)[C@H](C)C1	53.4	0.152	0.00603	0.264	0.464	> 2	0.00034
C#CC(=O)N1CCN(C(=O)Oc2cc3c(Nc4ccc(Cl)c(Cl)c4F)ncnc3cc2OC)[C@H](C)C1	94	0.0222	0.299	0.718	0.671	> 2	0.00032
C=CC(=O)N1CCN(C(=O)Oc2cc3c(Nc4ccc(C#N)c(Cl)c4)ncnc3cc2OC)[C@H](C)C1	11.9						
C=CC(=O)N1CCN(C(=O)Oc2cc3c(Nc4ccc(C#N)cc4)ncnc3cc2OC)[C@H](C)C1	4.4						
C=CC(=O)N1C[C@@H]2C[C@H]1CN2C(=O)Oc1cc2c(Nc3ccc(Cl)c(Cl)c3F)ncnc2cc1OC	95.8	0.00607	0.00195	0.0231	0.0233	0.0416	0.0003
C=CC(=O)N1CCN(C(=O)Oc2cc3c(Nc4ccc5ccccc5c4)ncnc3cc2OC)[C@H](C)C1	30.8						
CN(C)C/C=C/C(=O)Nc1cc2c(Nc3ccc(F)c(Cl)c3)ncnc2cc1O[C@H]1CCOC1 [AFATINIB]	102	0.00169	0.00037	0.00277	0.001	0.00023	
C=C(F)C(=O)N1C[C@@H]2C[C@H]1CN2C(=O)Oc1cc2c(Nc3ccc(Cl)c(Cl)c3F)ncnc2cc1OC	47.9						
C=CC(=O)Oc1cc2c(Nc3ccc(Cl)c(Cl)c3F)ncnc2cc1OC	71.5	0.0544	0.0923	1.34	0.619	> 2	0.00054
C=C(C(=O)N1CCN(C(=O)Oc2cc3c(Nc4ccc(Cl)c(Cl)c4F)ncnc3cc2OC)[C@H](C)C1)C(F)(F)F	82.7	0.0282	0.0908	0.553	1.02	> 2	0.00038
C=CC(=O)N1CCC(Oc2cc3c(Nc4ccc(Cl)c(Cl)c4F)ncnc3cc2OC)CC1 [POZIOTINIB]	97.1	0.00388	0.0009	0.0101	0.00867	0.00227	

Reference: ChEMBL document CHEMBL5143650, “Synthesis and biological evaluation of new series of quinazoline derivatives as EGFR/HER2 dual-target inhibitors” (Bioorg Med Chem Lett, 2022)
